Experimental findings from ChEMBL document CHEMBL4052728, “Diaminopimelic acid (DAP) analogs bearing isoxazoline moiety as selective inhibitors against meso-diaminopimelate dehydrogenase (m-Ddh) from Porphyromonas gingivalis” (Bioorg Med Chem Lett, 2017) are described below.

Series [1] has as its target T1, Meso-diaminopimelate D-dehydrogenase (Porphyromonas gingivalis (strain ATCC BAA-308 / W83), UniProt Q7MW40).
T1 sequence (Q7MW40 whole entry): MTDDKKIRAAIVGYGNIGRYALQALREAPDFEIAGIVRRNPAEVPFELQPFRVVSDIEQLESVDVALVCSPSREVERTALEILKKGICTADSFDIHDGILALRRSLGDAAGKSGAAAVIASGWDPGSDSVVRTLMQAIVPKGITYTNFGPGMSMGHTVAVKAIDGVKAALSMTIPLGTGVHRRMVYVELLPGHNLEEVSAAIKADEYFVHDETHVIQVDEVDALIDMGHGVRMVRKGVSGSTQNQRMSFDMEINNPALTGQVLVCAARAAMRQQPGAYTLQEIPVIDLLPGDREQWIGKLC
Nature of the series: Inhibition of Porphyromonas gingivalis m-Ddh expressed in Escherichia coli BL21 (DE3) pLysS at pH 7.8 using meso-diaminopimelate as substrate by spectrophotometric method.

For series [2], the target named is T1, Meso-diaminopimelate D-dehydrogenase. Nature of the series: Inhibition of Porphyromonas gingivalis m-Ddh expressed in Escherichia coli BL21 (DE3) pLysS at pH 10.5 using meso-diaminopimelate as substrate by spectrophotometric method.
Series [3] has as its system Porphyromonas gingivalis. Nature of the series: Antibacterial activity against Porphyromonas gingivalis W83 after 24 hrs by broth microdilution method. It counts as functional. The following applies: W83, 24 h.
Series [4] has as its system Porphyromonas gingivalis. The experiment in a line: Antibacterial activity against Porphyromonas gingivalis ATCC 33277 after 24 hrs by broth microdilution method. It counts as functional. The following applies: ATCC 33277, 24 h. For orientation: In broth dilution the organism is exposed to a series of concentrations in liquid medium.
Another series has as its system Fusobacterium nucleatum. Nature of the series: Growth inhibition of Fusobacterium nucleatum ATCC 25586 up to 3 mM after 24 hrs by broth microdilution method.
The next series concerns Staphylococcus aureus. The experiment in a line: Growth inhibition of Staphylococcus aureus N315 up to 3 mM after 24 hrs by broth microdilution method.
Series [5] has as its target T2, Meso-diaminopimelate D-dehydrogenase (Porphyromonas gingivalis (strain ATCC BAA-308 / W83)) (UniProt Q7MW40).
T2 sequence (whole entry): T1 sequence (Q7MW40 whole entry)
Nature of the series: Inhibition of Porphyromonas gingivalis m-Ddh expressed in Escherichia coli BL21 (DE3) pLysS up to 1 mM at pH 7.8 using meso-diaminopimelate as substrate by spectrophotometric method.

For series [6], the target named is T2, Meso-diaminopimelate D-dehydrogenase (Porphyromonas gingivalis (strain ATCC BAA-308 / W83)). The experiment in a line: Inhibition of Porphyromonas gingivalis m-Ddh expressed in Escherichia coli BL21 (DE3) pLysS up to 3 mM at pH 10.5 using meso-diaminopimelate as substrate by spectrophotometric method.

Values after ≈ are worked out from the molar mass of the structure shown. Active and inactive are the calls of the source. No cut-off for these calls is given here.

In general, IC50 refers to the concentration needed to halve the response being measured. The low end stands for greater potency in that assay, the high end for weaker potency in that assay. One may read the MIC as the lowest concentration found to suppress growth. A high value points to a less susceptible organism. Regarding `N[C@@H](C[C@H]1CC(C(=O)O)=NO1)C(=O)O`, the IC50 in series [1] was found to be 14.9 µM; in series [2] it was 211 µM. Also, the values for the MIC in the series on Porphyromonas gingivalis [3] and with Porphyromonas gingivalis [4] were 773 µM (≈ 156 µg/mL) and 1880 µM (≈ 379 µg/mL), respectively. The “growth inhibition (GI)” value with Fusobacterium nucleatum and in the series with Staphylococcus aureus was “Non-Toxic” each time.
For `N[C@@H](C[C@@H]1CC(C(=O)O)=NO1)C(=O)O`, the inhibition entry in series [5] and in series [6] was “inactive” in each case.
